Molecules are shown by their SMILES.

On to `O=C1CCc2c(O)cccc21`, for which the melting point (as a rule, the temperature, or range, at which the solid turns liquid) was in the range of 242 to 244 °C. Consider `NC(=O)Nc1ccccc1Br`, for which the melting point lay within 199 to 201 °C. `CN(C)CCN1CC(C(=O)O)CC1=O` (centres undefined) registered a melting point of 162 to 164 °C. With `CCOC(C)c1ncc(C(=O)O)s1` (centres undefined) the figure was 112 to 114 °C; with `Cc1cc(N)n(-c2cccc(C(F)(F)F)c2)n1`, 88 to 92 °C; with `Cc1c(C(=O)O)oc2c(Br)cc(Cl)cc12`, 279 to 281 °C. With `CC1CNC(=Nc2ccc(C(C)C)cc2)S1` (centres undefined) the figure was 109 to 111 °C; with `COC(=O)c1ccc(C)c(NC(=O)OCC(F)(F)F)c1`, 121 to 123 °C. Under `O=Cc1cnc2ccc(Br)cn12` stands 162 to 164 °C. The molecule `COCCOc1ncccc1C(=O)O` gave a melting point of 58 to 60 °C.

For `O=c1[nH]c(-c2cccc(Cl)c2)cs1`, the melting point fell in the range of 163 to 165 °C. Under `Cc1nccn1-c1cc(C(=O)O)c2ccccc2n1` stands 229 to 231 °C; under `COc1cc(C2(C(=O)O)CC2)ccc1C`, 127 to 129 °C; under `CCOc1cc(C=O)cc(Br)c1OC`, 52 to 54 °C. With `COCc1nc(Cl)cc(Cl)n1` the figure was 43 to 45 °C. Under `CC(C)(NS(C)(=O)=O)C(=O)O` stands 71 to 73 °C. With `Cc1nccn1-c1ccc(N)cc1F`, the melting point fell in the range of 84 to 86 °C.

Molecule `NC(=O)C1CCCC1N` (centres undefined) returned a melting point of 123 to 125 °C. Under `Cc1ccc(C(=O)C(Cl)c2ccc(C)cc2)cc1` (centres undefined) stands 67 to 69 °C; under `O=C(O)Cc1ccc2c(c1)CCCC2`, 78 to 80 °C; under `Cc1cc(N)n(-c2ncccn2)n1`, 203 to 205 °C. Under `NS(=O)(=O)CCCF` stands 45 to 47 °C; under `COc1ccc(-n2ccnc2S)cc1`, 175 to 177 °C. In turn, `CCOc1ccc(CO)cc1OCC` came in with a melting point of 37 to 39 °C. Under `Cc1ccc(S(=O)(=O)Cl)c(Br)c1` stands 70 to 72 °C; under `CCNc1nnc(S)s1`, 141 to 143 °C; under `Cn1cc(NS(=O)(=O)c2ccsc2C(=O)O)cn1`, 239 to 241 °C. Under `COC(=O)c1cccc(-c2nn[nH]n2)c1` stands 189 to 191 °C; under `O=C(c1ccc(F)cc1)N1CCNCC1`, 74 to 76 °C; under `O=CC1=C(Sc2nc3ccccc3o2)CCCC1`, 93 to 95 °C. With `COC(=O)c1ccc2nc(N)oc2c1` the figure was 228 to 230 °C; with `COC(=O)C(=O)CC(=O)c1ccccc1OC`, 80 to 84 °C. In turn, `COc1ccc(C=C(CC(=O)O)c2nc3ccccc3s2)cc1` displayed a melting point of 154 to 156 °C. Under `CC(=O)c1ccn(S(=O)(=O)c2ccc(C)cc2)c1` stands 83 to 85 °C; under `COc1cc(C=O)ccc1OCc1ccc(F)cc1`, 77 to 81 °C. With `O=S(=O)(Cl)c1ccc(OCc2ccccc2)cc1` the figure was 95 to 97 °C. With `O=C(NNc1ccccc1)Nc1ccccc1` the figure was 178 to 180 °C; with `CS(=O)(=O)Nc1cccc(C#N)c1`, 154 to 156 °C. Consider `O=C(O)c1ccc(-c2ccc(F)cc2)o1`, for which the melting point lay within 193 to 195 °C.

For `NC(=S)C1CN(Cc2ccccc2)CCO1` (centres undefined), the melting point was 90 to 92 °C. Under `Nc1nnc(CCCc2cccs2)o1` stands 149 to 151 °C; under `Cc1ccc(S(=O)(=O)N(C)c2ccc(C(=O)O)cc2)cc1`, 188 to 190 °C; under `NS(=O)(=O)c1ccc(C(=O)O)cc1Cl`, 231 to 233 °C. The molecule `Oc1ccc(Oc2nccs2)cc1` had a melting point of 126 to 128 °C. In turn, `NC(CO)c1ccc(Br)cc1` (centres undefined) registered a melting point of 89 to 91 °C. `O=C(O)c1scnc1C1CC1` showed a melting point of 204 to 206 °C.

Regarding `CC(=CC(=O)O)c1ccccc1Cl`, the melting point is 75 to 77 °C.

`O=C1NC(=O)C(Cc2ccc(O)cc2)N1` (centres undefined) returned a melting point of 267 to 269 °C. With `O=C(O)c1ccc(I)cc1Cl` the figure was 159 to 161 °C.

These data come from a melting point compilation (Tetko et al.).
